In patent EP2805705B1, “Packaging with one or more administration units comprising a sodium salt of (R)-3-[6-amino-pyridin-3-yl]-2-(1-cyclohexyl-1 H-imidazol-4-yl)-propionic acid” (IP Gesellschaft für Management mbH, priority 2013, dated 2014):

How the values were obtained:
Type in all cases: physicochemical
[1] = Chiral stability on storage for 14 days (chiral HPLC)
Method: Example 4: Chiral stability: Representative samples of the crystalline salt of (R)-3-(6-amino-pyridin-3-yl)-2-(1-cyclohexyl-1 H-imidazol-4-yl)-propionic acid ethyl ester with naphthalene-1,5disulfonic acid were prepared as described in example 1 amd stored for 14 days under described conditions (A), (B), (C) and (D): Results:
The enantiomeric purity of the sample measured at the beginning of measurement was 99.0%. Under the storage conditions 50°C (A) and 50°C and 80% relative humidity (B) a small increase of 0.2% of the (S)-enantiomers was observed. Under storage conditions 80°C (C), no change can be observed. Under the storage condition 80°C and 80% relative humidity (D) an increase of 2.7% of (S)-enantiomers was are observed. The measurements were made as described in Example 1 by chromatography on a chiral phase, Chiral HPLC (Chiralcel OD-H/84 (250x4.6 mm), heptane: isopropanol: acetonitrile 15:1: 0.5 +0.1% diethylamine (DEA), 30°C, 1 ml / min): Rt = 27.01 min.

[2] = Physical stability on storage for 14 days (XRPD, thermogravimetry); settings: stored 14 days under conditions (A), (B), (C) and (D)
Method: Example 3: Physical stability: Representative samples of the crystalline salt of (R)-3-(6-amino-pyridin-3-yl)-2-(1-cyclohexyl-1 H-imidazol-4-yl)-propionic acid ethyl ester with naphthalene-1,5-disulfonic acid as in Example 1 are produced and are stored for 14 days under the conditions (A), (B), (C) and (D): (A) 50°C; (B) 50°C and 80% relative humidity; (C) 80°C; (D) 80°C and 80% relative humidity.

[3] = Solubility in water (statement, no method given); settings: result in words
[4] = Maturation experiments (slurry conversion), relative stability; settings: among polymorphs 1, 2 and hydrate 1, suspensions kept five days at 20 °C, then dried at 40°C and <100 mbar
Method: Maturation experiments: By maturation experiments (slurry conversion) at 20 °C the relative stability of polymorphs 1 ({drug5b}) and 2 ({drug5c}) and hydrate 1 ({drug5e}) was investigated. A polymorph mixture of 81 mg (Mixture of Polymorph 1 ({drug5b}) and Polymorph 2 ({drug5c})), 83 mg of Polymorph 1 ({drug5b}) and 60 mg of hydrate 1 ({drug5e}) was prepared. The mixture was subjected to XRPD analysis to confirm the presence of all three polymorphs and then distributed into five capillaries. These samples were kept in suspension at 20°C for five days. After X-ray powder diffraction measurement of the suspensions these were dried over night at 40°C and <100mbar and again subjected to X-ray diffraction. Maturation experiments (a) to (e) were performed under the specified conditions, starting with the polymorph mixture described above. (a) The polymorph mixture was suspended in water. After stirring the suspension for five days at 20 °C, the suspension was analyzed via XRPD and a mixture of polymorph 1 ({drug5b}) and hydrate 1 ({drug5e}) was proven. […] (b) The polymorph mixture was suspended in water/methanol 1:1 (vol.: vol.). […] (c) The polymorph mixture was suspended in 2-propanol. […] (d) The polymorph mixture was suspended in acetone. […] (e) The polymorph mixture was suspended in ethylacetate. […]

[5] = Dynamic vapor sorption (DVS), DVS-1 instrument, two cycles at 25 °C; settings: for weight increase in the sorption step: 25 °C
[6] = Determination of solubility in a mixture of acetone and water (4:1, by volume); settings: acetone and water (4:1, by volume)
Method: Determination of solubility: For the determination of the solubility in a mixture of acetone and water (4:1, by volume), samples of 0.5 mg to 50 mg of the test substances were suspended in a defined amount of the solvent (800 mg to 1200 mg) in screw cap vials with a magnetic stirring bar, which were placed in a temperature-controlled multiple stirring device equipped for transmission measurement (Avantium Crystal 16). With stirring at 700 rpm, the vials were cooled from room temperature to 0 °C and then heated to 60 °C with a heating rate of 3 °C/h, kept at 60 °C for 2 h and cooled again to 0 °C with a cooling rate of 3 °C/h. By means of transmission measurement it was determined whether the sample was dissolved (100 % transmission), or crystals were present. For polymorph 1 ({drug5b}), polymorph 2 ({drug5c}), hydrate 1 ({drug5e}) and hydrate 2 ({drug5f}) of compound (V) the following solubilities in a mixture of acetone and water (4:1, by volume) were determined.

## CCOC(=O)[C@H](Cc1ccc(N)nc1)c1cn(C2CCCCC2)cn1.O=S(=O)(O)c1cccc2c(S(=O)(=O)O)cccc12 [naphthalene-1,5-disulfonic acid salt of (R)-3-(6-amino-pyridin-3-yl)-2-(1-cyclohexyl-1 H-imidazol-4-yl)-propionic acid-ethylester]
[1]; at the beginning of measurement
  enantiomeric purity: 99.0%
[1]; storage condition 80°C and 80% relative humidity (D), 14 days
  increase of (S)-enantiomers: 2.7%
[1]; storage condition (A) 50°C, 14 days
  enantiomeric purity: 98.8%
[1]; storage condition (B) 50°C and 80% relative humidity, 14 days
  enantiomeric purity: 98.8%
[1]; storage condition (C) 80°C, 14 days
  enantiomeric purity: 99.0%
[1]; storage condition (D) 80°C and 80% relative humidity, 14 days
  enantiomeric purity: 96.3%
[1]; storage conditions 50°C (A) and 50°C and 80% relative humidity (B), 14 days
  increase of the (S)-enantiomers: 0.2%
[1]; storage conditions 80°C (C), 14 days
  change of enantiomeric purity: no change
[2]
  XRPD measurements at the beginning and after 14 days: close to each other

## CNc1nccc(-c2cc3cc(C(=O)N[C@@H](CN(c4ccccc4)c4ncccn4)C(N)=O)ccc3[nH]2)n1 [Polymorph 1, 2-(2-methylamino-pyrimidin-4-yl)-1 H-indole-5-carboxylic acid [(S)-1-carbamoyl-2-(phenyl-pyrimidin-2-yl-amino)-ethyl]-amide]
[3]
  solubility in water: low solubility in water
[4]
  relative thermodynamic stability: thermodynamically most stable polymorph
[4]; listed as polymorph 1
  relative thermodynamic stability: thermodynamically most stable
[5]; Relative humidity 40 %, first cycle
  weight increase in the sorption step: 0.5 % / 0.5%
[5]; Relative humidity 40 %, second cycle
  weight increase in the sorption step: 0.5 % / 0.5%
[5]; Relative humidity 60 %, first cycle
  weight increase in the sorption step: 0.6 % / 0.6%
[5]; Relative humidity 60 %, second cycle
  weight increase in the sorption step: 0.6 % / 0.6%
[5]; Relative humidity 80 %, first cycle
  weight increase in the sorption step: 0.9 % / 0.9%
[5]; Relative humidity 80 %, second cycle
  weight increase in the sorption step: 0.9 % / 0.9%
[5]; Relative humidity 95 %, first cycle
  weight increase in the sorption step: 1.3%
[5]; Relative humidity 95 %, second cycle
  weight increase in the sorption step: 1.4%
[5]; at a high relative humidity of 80 %
  water uptake (hygroscopicity): about 0.9%
[6]; Temperature 36.9 °C
  Solubility [g in 100 g of solvent]: 0.43 g in 100 g of solvent
[6]; Temperature 44.7 °C
  Solubility [g in 100 g of solvent]: 0.50 g in 100 g of solvent
[6]; Temperature 60.0 °C
  Solubility [g in 100 g of solvent]: 0.85 g in 100 g of solvent
